Measurements published in US10829473B2, “Modulators of the cystic fibrosis transmembrane conductance regulator protein and methods of use” (AbbVie Overseas S.Á.R.L., priority 2017, dated 2020).
Read-outs that look alike come from different tables or passages of the source.

Target: T1, F508delCFTR (Homo sapiens, UniProt P13569, DEL508-508)
T1 construct: expressed in transfected cells; host or cells: CFBE41o- human lung derived epithelial cells (CFBE41o-F508delCFTR-HRP), doxycycline-inducible
Test: Cell Surface Expression-Horse Radish Peroxidase (CSE-HRP) Assay;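 for EC50 (with co-corrector): co-corrector chromenyl benzoic acid corrector at 2 or 3 µM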
Format: cell-based
Details: for Maximum % activity (with co-corrector) / Emax: maximum at any tested concentration; for Emax: read-out: Maximum % activity (without co-corrector)
Description: A cellular assay for measuring the F508delCFTR cell surface expression after correction with test compounds either without or with a co-corrector (2 μM of 3-[(2R,4R)-4-({[1-(2,2-difluoro-1,3-benzodioxol-5-yl)cyclopropyl]carbonyl}amino)-7-methoxy-3,4-dihydro-2H-chromen-2-yl]benzoic acid), was developed in human lung derived epithelial cell line (CFBE4lo−) (Veit G et al, (2012) Mol Biol Cell. 23(21): 4188-4202). The development was achieved by expressing the F508delCFTR mutation along with a horseradish peroxidase (HRP) in the fourth exofacial loop, and then measuring the HRP activity using luminescence readout from these cells, CFBE410-F508delCFTR-HRP, that were incubated overnight with the test corrector compounds, either without or with the co-corrector. For this primary assay, the CFBE410-F508delCFTR-HRP cells were plated in 384-well plates (Greiner Bio-one; Cat 781080) at 4,000 cells/well along with 0.5 μg/mL doxycycline to induce the F508delCFTR-HRP expression and further incubated at 37° C., 5% CO2 for 68-72 hours. The test compounds were then added either without or with a co-corrector at the required concentrations and further incubated for 18-24 hours at 33° C. The highest concentration tested was 20 μM or 30 μM (GI-1 to GIII-36) with an 8-point concentration response curve using a 3-fold dilution in both the test compound without or with the co-corrector. Three replicate plates were run to determine one EC50. All plates contained negative controls (dimethyl sulfoxide, DMSO) and positive control (2 μM or 3 μM (GI-1 to GIII-36) of 3-[(2R,4R)-4-({[1-(2,2-difluoro-1,3-benzodioxol-5-yl)cyclopropyl]carbonyl}amino)-7-methoxy-3,4-dihydro-2H-chromen-2-yl]benzoic acid) as well as on-plate concentration response of the positive control. Post incubation, the plates were washed 5× times with Dulbecco's phosphate buffered saline (DPBS), followed by the addition of the HRP substrate, luminol (50 4), and measuring the HRP activity using luminescence readout on EnVision® Multilabel Plate Reader (Perkin Elmer; product number 2104-0010). The raw counts from the experiment were analyzed using Accelrys® Assay Explorer v3.3.
Z′ greater than 0.5 was used as passing quality control criteria for the plates.
The Z′ is defined as: 1−[3*SDPositve Control+3*SDNegative Control/Absolute(MeanPositive Control−MeanNegative Control)] wherein “SD” is standard deviation.
The % activity measured at each of the 8 test concentrations of the test compound added either without or with a co-corrector (2 μM or 3 μM (GI-1 to GIII-36) of 3-[(2R,4R)-4-({[1-(2,2-difluoro-1,3-benzodioxol-5-yl)cyclopropyl]carbonyl}amino)-7-methoxy-3,4-dihydro-2H-chromen-2-yl]benzoic acid) was normalized to the on-plate positive control using the following formulae: % activity (Test compound without co-corrector)=[(test compound without co-corrector response DMSO response)/(positive control response DMSO response)]*100 % activity (Test compound with co-corrector)=[(test compound with co-corrector response DMSO response)/(positive control response DMSO response)]*100
The maximum % activity achieved for the test compound either without or with a co-corrector at any tested concentration is presented in Table 6 along with the respective EC50's calculated using the following general sigmoidal curve with variable Hill slope equation (described as Model 42 in the Accelrys® Assay Explorer v3.3 software): y=(a−d)/(1+(x/c)b)+d
General sigmoidal curve with concentration, response, top, bottom, EC50 and Hill slope. This model describes a sigmoidal curve with an adjustable baseline, a. The equation can be used to fit curves where response is either increasing or decreasing with respect to the independent variable, “x”.
“x” is a concentration of drug under test.
“a” is the maximum response, and “d” is the minimum response
“c” is the inflection point (EGO for the curve. That is, “y” is halfway between the lower and upper asymptotes when x=c.
“b” is the slope-factor or Hill coefficient. […]

[1] = test compound alone, without co-corrector, read-out: EC50 (without co-corrector)
[2] = with co-corrector, read-out: EC50 (with co-corrector)
[3] = test compound with co-corrector
[4] = test compound with co-corrector, read-out: EC50 (with co-corrector)
[5] = test compound without co-corrector
[6] = test compound without co-corrector, read-out: EC50 (without co-corrector)

T1 sequence (P13569 with tags, fused parts or gaps DEL508-508): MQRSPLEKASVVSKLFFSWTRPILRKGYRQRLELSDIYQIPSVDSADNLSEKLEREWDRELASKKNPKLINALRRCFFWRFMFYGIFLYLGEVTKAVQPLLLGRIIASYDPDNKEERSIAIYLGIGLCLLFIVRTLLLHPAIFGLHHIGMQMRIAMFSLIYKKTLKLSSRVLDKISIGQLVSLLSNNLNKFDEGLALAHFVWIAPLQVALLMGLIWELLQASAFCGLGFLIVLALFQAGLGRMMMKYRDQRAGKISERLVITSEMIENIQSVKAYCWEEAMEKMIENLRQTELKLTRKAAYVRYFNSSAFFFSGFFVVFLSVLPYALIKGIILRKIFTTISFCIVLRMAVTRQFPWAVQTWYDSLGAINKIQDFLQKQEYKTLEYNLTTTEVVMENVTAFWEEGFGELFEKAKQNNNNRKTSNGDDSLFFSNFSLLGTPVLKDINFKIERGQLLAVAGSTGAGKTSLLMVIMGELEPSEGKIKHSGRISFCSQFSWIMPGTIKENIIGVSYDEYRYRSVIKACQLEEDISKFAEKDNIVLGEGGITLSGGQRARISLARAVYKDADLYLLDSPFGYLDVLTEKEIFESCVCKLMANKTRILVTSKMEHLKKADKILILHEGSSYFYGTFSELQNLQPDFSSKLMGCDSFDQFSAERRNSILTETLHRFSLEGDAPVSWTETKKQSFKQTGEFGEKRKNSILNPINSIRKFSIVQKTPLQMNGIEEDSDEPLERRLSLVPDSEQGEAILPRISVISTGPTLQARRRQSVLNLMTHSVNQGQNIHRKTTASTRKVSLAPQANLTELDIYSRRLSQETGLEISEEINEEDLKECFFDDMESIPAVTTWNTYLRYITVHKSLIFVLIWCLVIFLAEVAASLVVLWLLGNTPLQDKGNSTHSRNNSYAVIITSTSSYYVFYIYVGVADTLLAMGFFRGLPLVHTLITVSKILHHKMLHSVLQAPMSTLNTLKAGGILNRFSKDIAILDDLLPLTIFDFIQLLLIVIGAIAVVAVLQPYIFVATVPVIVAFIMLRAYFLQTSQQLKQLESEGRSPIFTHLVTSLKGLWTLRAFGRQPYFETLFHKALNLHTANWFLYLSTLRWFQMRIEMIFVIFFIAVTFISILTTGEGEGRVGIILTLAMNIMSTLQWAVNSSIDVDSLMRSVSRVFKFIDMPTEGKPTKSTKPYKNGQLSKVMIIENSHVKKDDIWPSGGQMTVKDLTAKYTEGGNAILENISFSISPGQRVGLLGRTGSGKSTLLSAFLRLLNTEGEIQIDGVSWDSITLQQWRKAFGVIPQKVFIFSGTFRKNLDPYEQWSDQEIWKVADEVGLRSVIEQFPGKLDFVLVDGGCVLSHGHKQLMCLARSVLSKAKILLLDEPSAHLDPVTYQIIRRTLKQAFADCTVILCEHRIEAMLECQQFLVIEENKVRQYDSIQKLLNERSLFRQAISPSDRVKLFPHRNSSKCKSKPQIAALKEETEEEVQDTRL

Structure (SMILES) | EC50 [1] | Maximum % activity (with co-corrector) (with co-corrector) | EC50 [2] | Emax (without co-corrector) | Maximum % activity (with co-corrector) [3] | EC50 [4] | Emax [5] | EC50 [6]
COc1cc(OC(C)C)c(C2(C(=O)NS(=O)(=O)c3cccc4nc(C)ccc34)CC2)cn1 [Example GI-18, 1-{6-methoxy-4-[(propan-2-yl)oxy]pyridin-3-yl}-N-(2-methylquinoline-5-sulfonyl)cyclopropane-1-carboxamide] | 3 to 10 µM | +++ (≥350) | < 3 µM | > 150% | – | – | – | –
COc1cc(C2(C(=O)NS(=O)(=O)c3cccc4ncccc34)CC2)c(OCC(C)C)cn1 [Example GI-19, 1-[2-methoxy-5-(2-methylpropoxy)pyridin-4-yl]-N-(quinoline-5-sulfonyl)cyclopropane-1-carboxamide] | 3 to 10 µM | +++ (≥350) | < 3 µM | > 150% | – | – | – | –
COc1cc(C2(C(=O)NS(=O)(=O)c3cccc4nc(C)ccc34)CC2)c(OCC(C)C)cn1 [Example GI-20, 1-[2-methoxy-5-(2-methylpropoxy)pyridin-4-yl]-N-(2-methylquinoline-5-sulfonyl)cyclopropane-1-carboxamide] | < 3 µM | +++ (≥350) | < 3 µM | > 150% | – | – | – | –
COc1cc(C2(C(=O)NS(=O)(=O)c3cccc4[nH]ccc34)CC2)c(OCC(C)C)cn1 [Example GI-21, N-(1H-indole-4-sulfonyl)-1-[2-methoxy-5-(2-methylpropoxy)pyridin-4-yl]cyclopropane-1-carboxamide] | < 3 µM | +++ (≥350) | < 3 µM | > 150% | – | – | – | –
CC(C)Oc1ncc(C2CCC2)cc1C1(C(=O)NS(=O)(=O)c2cccc3ncccc23)CC1 [Example GI-22, 1-{5-cyclobutyl-2-[(propan-2-yl)oxy]pyridin-3-yl}-N-(quinoline-5-sulfonyl)cyclopropane-1-carboxamide] | < 3 µM | +++ (≥350) | < 3 µM | > 150% | – | – | – | –
Cc1ccc2c(S(=O)(=O)NC(=O)C3(c4cc(C5CCC5)cnc4OC(C)C)CC3)cccc2n1 [Example GI-23, 1-{5-cyclobutyl-2-[(propan-2-yl)oxy]pyridin-3-yl}-N-(2-methylquinoline-5-sulfonyl)cyclopropane-1-carboxamide] | < 3 µM | +++ (≥350) | < 3 µM | > 150% | – | – | – | –
CC(C)Oc1ncc(C2CCC2)cc1C1(C(=O)NS(=O)(=O)c2cccc3[nH]ccc23)CC1 [Example GI-24, 1-{5-cyclobutyl-2-[(propan-2-yl)oxy]pyridin-3-yl}-N-(1H-indole-4-sulfonyl)cyclopropane-1-carboxamide] | < 3 µM | +++ (≥350) | < 3 µM | > 150% | – | – | – | –
CC(C)Oc1cnc(C2CCC2)cc1C1(C(=O)NS(=O)(=O)c2cccc3ncccc23)CC1 [Example GI-25, 1-{2-cyclobutyl-5-[(propan-2-yl)oxy]pyridin-4-yl}-N-(quinoline-5-sulfonyl)cyclopropane-1-carboxamide] | 3 to 10 µM | +++ (≥350) | < 3 µM | > 150% | – | – | – | –
Cc1ccc2c(S(=O)(=O)NC(=O)C3(c4cc(C5CCC5)ncc4OC(C)C)CC3)cccc2n1 [Example GI-26, 1-{2-cyclobutyl-5-[(propan-2-yl)oxy]pyridin-4-yl}-N-(2-methylquinoline-5-sulfonyl)cyclopropane-1-carboxamide] | 3 to 10 µM | +++ (≥350) | < 3 µM | > 150% | – | – | – | –
CC(C)Oc1cnc(C2CCC2)cc1C1(C(=O)NS(=O)(=O)c2cccc3[nH]ccc23)CC1 [Example GI-27, 1-{2-cyclobutyl-5-[(propan-2-yl)oxy]pyridin-4-yl}-N-(1H-indole-4-sulfonyl)cyclopropane-1-carboxamide] | 3 to 10 µM | +++ (≥350) | < 3 µM | > 150% | – | – | – | –
O=C(NS(=O)(=O)c1cccc2ncccc12)C1(c2cc(C3CCC3)cnc2N2CCCC2)CC1 [Example GI-28, 1-[5-cyclobutyl-2-(pyrrolidin-1-yl)pyridin-3-yl]-N-(quinoline-5-sulfonyl)cyclopropane-1-carboxamide] | 3 to 10 µM | +++ (≥350) | < 3 µM | > 150% | – | – | – | –
Cc1ccc2c(S(=O)(=O)NC(=O)C3(c4cc(C5CCC5)cnc4N4CCCC4)CC3)cccc2n1 [Example GI-29, 1-[5-cyclobutyl-2-(pyrrolidin-1-yl)pyridin-3-yl]-N-(2-methylquinoline-5-sulfonyl)cyclopropane-1-carboxamide] | – | – | – | – | +++ (≥350) | < 3 µM | > 150% | < 3 µM
O=C(NS(=O)(=O)c1cccc2[nH]ccc12)C1(c2cc(C3CCC3)cnc2N2CCCC2)CC1 [Example GI-30, 1-[5-cyclobutyl-2-(pyrrolidin-1-yl)pyridin-3-yl]-N-(1H-indole-4-sulfonyl)cyclopropane-1-carboxamide] | – | – | – | – | +++ (≥350) | < 3 µM | > 150% | < 3 µM
O=C(NS(=O)(=O)c1cccc2c1CCCN2)C1(c2cc(C3CCC3)cnc2N2CCCC2)CC1 [Example GI-31, 1-[5-cyclobutyl-2-(pyrrolidin-1-yl)pyridin-3-yl]-N-(1,2,3,4-tetrahydroquinoline-5-sulfonyl)cyclopropane-1-carboxamide] | – | – | – | – | +++ (≥350) | < 3 µM | > 150% | < 3 µM
O=C(NS(=O)(=O)c1cccc2ncccc12)C1(c2cc(C3CC3)cnc2N2CCCC2)CC1 [Example GI-32, 1-[5-cyclopropyl-2-(pyrrolidin-1-yl)pyridin-3-yl]-N-(quinoline-5-sulfonyl)cyclopropane-1-carboxamide] | – | – | – | – | +++ (≥350) | < 3 µM | > 150% | 3 to 10 µM
Cc1ccc2c(S(=O)(=O)NC(=O)C3(c4cc(C5CC5)cnc4N4CCCC4)CC3)cccc2n1 [Example GI-33, 1-[5-cyclopropyl-2-(pyrrolidin-1-yl)pyridin-3-yl]-N-(2-methylquinoline-5-sulfonyl)cyclopropane-1-carboxamide] | – | – | – | – | +++ (≥350) | < 3 µM | > 150% | 3 to 10 µM
O=C(NS(=O)(=O)c1cccc2[nH]ccc12)C1(c2cc(C3CC3)cnc2N2CCCC2)CC1 [Example GI-34, 1-[5-cyclopropyl-2-(pyrrolidin-1-yl)pyridin-3-yl]-N-(1H-indole-4-sulfonyl)cyclopropane-1-carboxamide] | – | – | – | – | +++ (≥350) | < 3 µM | > 150% | 3 to 10 µM
O=C(NS(=O)(=O)c1cccc2ncccc12)C1(c2cc(Cl)cnc2N2CCCC2)CC1 [Example GI-35, 1-[5-chloro-2-(pyrrolidin-1-yl)pyridin-3-yl]-N-(quinoline-5-sulfonyl)cyclopropane-1-carboxamide] | – | – | – | – | +++ (≥350) | < 3 µM | > 150% | 3 to 10 µM
